Where a name gives a salt, the structure may show the parent alone.
What was measured:
[1] = molecular target: T1, complex of human CDK4 and cyclin D3 (Homo sapiens, UniProt P11802); test: Inhibition of CDK4/cyclin D retinoblastoma kinase activity (D-type cyclin is D3); assay type: biochemical; settings: superscript a: D-type cyclin is D3; apparent Ki; read-out: Ki CDK 4/D
T1 construct: made in house; host or cells: insect cells, co-infected with baculovirus
In short: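 Radiometric assay: [32P]- or [33P]ATP phosphate incorporation into Rb substrate at 30°C for 20 min, stopped with EDTA, filter-captured and phosphorimaged.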

U2-OS = test: Inhibition of cell growth, MTT assay, U2-OS; assay type: cell-based; settings: Homo sapiens, U2OS
In short: (§1)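 Cells rested 4 h after plating, then exposed to graded compound concentrations in 0.5% (v/v) DMSO for four to six days (cell-type dependent) at 37° C, 5% CO2. Viability was read by MTT (0.2 mg/mL final, 4 h at 37° C), with DMSO-solubilized formazan measured at 540 nm.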

[2] = test system: pRb phosphorylation at serine 780 in HCT-116 cells; test: pRb immunoblotting (anti-phospho-Rb (ser780) antibody); assay type: cell-based, human; settings: five micromolar of each compound for 12 hours, western blot, anti-phospho-Rb (Ser 780) antibody
Experimental: (§2) The ability of compounds to inhibit phosphorylation of the retinoblastoma protein (pRb) was assessed by western blot analysis. An anti-Rb antibody was used to measure the conversion of hyper-phosphorylated pRb to hypo-phosphorylated pRb.
(§3) Human colon tumor cells (HCT-116 cells; 5×10^6) were plated on […] dishes and allowed to grow overnight. Five micromolar of each compound was added for 12 hours. The cells were then collected and centrifuged. The cell pellets were lysed by the addition of 100 μL lysis buffer (50 mM HEPES (pH 7.0), 250 mM NaCl, 5 mM ethylenediaminetetraacetic acid, 0.1% Nonidet P-40, 1 mM dithiothreitol, 2 mM sodium pyrophosphate, 1 mM sodium orthovanadate, 1 μg/ml aprotonin, 1 μg/ml leupeptin, 50 μg/ml phenylmethylsulfonyl fluoride). Forty micrograms of protein were separated by sodium dodecyl sulfate-polyacrylamide gel electrophoresis (SDS-PAGE) on a 6% gel. The proteins were transferred to nitrocellulose and blocked with 5% blocking buffer in Tris-buffered saline overnight. The anti-Rb antibody (Pharmingen), the anti-phospho-Rb (Ser 780) antibody (MBL), and secondary antibody were incubated for 1 hour at room temperature followed by three wash steps in 0.01% Tween-20 in Tris-buffered saline. The Rb protein was detected using chemiluminescence according to the manufacturer (Amersham).

COLO-205 = test: Inhibition of cell growth, MTT assay, COLO-205; assay type: cell-based; settings: Homo sapiens; COLO-205, MTT assay
Experimental: (§4) The water-insoluble purple formazan product was then detected spectrophotometrically. […] Plates were incubated for four hours before addition of inhibitor compounds. Different concentrations of inhibitor compounds were added in 0.5% (v/v) dimethylsulfoxide (15 μL/well), and cells were incubated at 37° C. (5% CO2) for four to six days (depending on cell type). At the end of the incubation, MTT was added to a final concentration of 0.2 mg/mL, and cells were incubated for 4 hours more at 37° C. After centrifugation of the plates and removal of medium, the absorbance of the formazan (solubilized in dimethylsulfoxide) was measured at 540 nm.

[3] = test system: phosphorylation of the retinoblastoma protein (pRb) in HCT-116 cells; test: pRb immunoblotting (anti-Rb antibody); assay type: cell-based, human; settings: five micromolar of each compound for 12 hours, western blot
Experimental: as §2, §3

M14 melanoma = test: Inhibition of cell growth, MTT assay, M14 melanoma; assay type: cell-based; settings: Homo sapiens
Experimental: as §4

MCF-7 = test: Inhibition of cell growth, MTT assay, MCF-7; assay type: cell-based; settings: MCF-7, MTT assay; for IC50 / IC90: Homo sapiens, MCF7; for % inhibition of growth in parentheses after >25: concentration not given
Experimental: as §4

[4] = molecular target: T2, human CDK1 (cdc2) and cyclin B (Homo sapiens, UniProt P06493); test: Inhibition of CDK1(cdc2)/cyclin B histone H1 kinase activity; assay type: biochemical; settings: read-out: Ki CDK 1/B
T2 construct: purchased New England Biolabs (Beverly Mass.)
T2 sequence (P06493 whole entry): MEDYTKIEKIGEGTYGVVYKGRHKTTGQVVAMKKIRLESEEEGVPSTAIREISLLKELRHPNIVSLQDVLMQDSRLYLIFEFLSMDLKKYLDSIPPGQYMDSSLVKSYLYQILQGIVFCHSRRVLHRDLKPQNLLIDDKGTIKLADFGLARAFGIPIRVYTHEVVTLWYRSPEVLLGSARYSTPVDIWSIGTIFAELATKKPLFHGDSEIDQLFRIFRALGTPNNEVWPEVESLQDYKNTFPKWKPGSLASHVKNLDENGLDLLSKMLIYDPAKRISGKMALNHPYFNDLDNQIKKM
T2 sequence (P14635 whole entry partner): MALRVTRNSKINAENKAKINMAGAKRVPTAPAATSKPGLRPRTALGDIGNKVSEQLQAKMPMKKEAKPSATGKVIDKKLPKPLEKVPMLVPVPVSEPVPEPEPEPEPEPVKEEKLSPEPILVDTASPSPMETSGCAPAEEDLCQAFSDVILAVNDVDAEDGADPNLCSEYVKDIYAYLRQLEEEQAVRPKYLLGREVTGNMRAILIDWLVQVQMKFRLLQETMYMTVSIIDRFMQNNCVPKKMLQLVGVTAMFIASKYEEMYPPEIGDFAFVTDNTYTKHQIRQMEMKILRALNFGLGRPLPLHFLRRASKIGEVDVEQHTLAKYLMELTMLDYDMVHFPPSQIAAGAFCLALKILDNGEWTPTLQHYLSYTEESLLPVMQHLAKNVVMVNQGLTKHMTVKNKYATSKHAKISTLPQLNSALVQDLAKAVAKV
In short: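 CDK1/cyclin B (commercial, or CDK1/GST-cyclin B1 from co-infected insect cells) phosphorylated histone H1 with 25 μM [32/33P]ATP at pH 7.4, 30° C for 20 min, 2% DMSO. Product captured on phosphocellulose and read by phosphorimager; apparent Ki from competitive or tight-binding fits, with Km for ATP determined.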

MDA-MB-468 = test: Inhibition of cell growth, MTT assay, MDA-MB-468; assay type: cell-based; settings: Homo sapiens; MDA-MB-468, MTT assay
Experimental: as §4

RXF-393 = test: Inhibition of cell growth, MTT assay, RXF-393; assay type: cell-based; settings: Homo sapiens; RXF-393, MTT assay
Experimental: as §4

CDK2/cyclin A = molecular target: T3, CDK2/cyclin A (Homo sapiens, UniProt P24941); test: Inhibition of CDK2/cyclin A retinoblastoma kinase activity; assay type: biochemical; settings: read-out: Ki CDK 2/A
T3 construct: made in house; host or cells: CDK2: insect cells (baculovirus); cyclin A: E. coli, then limited proteolysis
In short: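 Baculovirus-expressed CDK2 with excess proteolyzed cyclin A (or purified complex), 150 nM or 5 nM, phosphorylating an Rb fragment with 25 μM [32/33P]ATP, pH 7.4, 30° C, 20 min. Filter-captured radioactivity by phosphorimager; apparent Ki from fits to competitive or tight-binding competitive inhibition using measured ATP Km.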

Saos-2 = test: Inhibition of cell growth, MTT assay, Saos-2; assay type: cell-based; settings: Homo sapiens; Saos-2, MTT assay
In short: as §1

HCT116 = test: Inhibition of cell growth, MTT assay, HCT116; assay type: cell-based, human; settings: Homo sapiens, HCT-116
In short: as §1

T1 sequence (P11802 whole entry): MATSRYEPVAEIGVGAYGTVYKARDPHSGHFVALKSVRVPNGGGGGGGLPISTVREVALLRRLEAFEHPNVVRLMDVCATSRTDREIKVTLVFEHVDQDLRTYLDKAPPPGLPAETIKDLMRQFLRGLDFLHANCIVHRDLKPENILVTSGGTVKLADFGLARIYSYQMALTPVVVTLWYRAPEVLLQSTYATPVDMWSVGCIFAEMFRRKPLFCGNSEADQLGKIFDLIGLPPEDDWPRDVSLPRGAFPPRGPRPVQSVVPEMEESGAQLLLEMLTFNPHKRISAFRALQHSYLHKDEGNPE
T1 sequence (P30281 whole entry partner): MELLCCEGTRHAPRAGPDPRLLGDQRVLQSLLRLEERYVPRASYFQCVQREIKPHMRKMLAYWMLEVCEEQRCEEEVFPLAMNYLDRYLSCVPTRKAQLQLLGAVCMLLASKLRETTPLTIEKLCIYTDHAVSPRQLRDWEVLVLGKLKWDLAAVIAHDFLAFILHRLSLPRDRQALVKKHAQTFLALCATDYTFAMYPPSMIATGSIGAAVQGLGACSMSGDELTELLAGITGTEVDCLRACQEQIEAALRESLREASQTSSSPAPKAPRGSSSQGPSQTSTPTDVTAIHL

Structure (SMILES)	Ki [1] [µM]	IC50 (U2-OS) [µM]	IC90 (U2-OS) [µM]	IC50 (COLO-205) [µM]	IC50 (M14 melanoma) [µM]	IC90 (M14 melanoma) [µM]	IC50 (MCF-7) [µM]	IC90 (MCF-7) [µM]	Ki [4] [µM]	IC50 (MDA-MB-468) [µM]	IC90 (MDA-MB-468) [µM]	Ki (CDK2/cyclin A) [µM]	IC50 (HCT116) [µM]	IC90 (HCT116) [µM]	IC90 (COLO-205) [µM]	Inhibits pRb (ser 780) phosphorylation [2]	Inhibits pRb phosphorylation [3]	IC50 (RXF-393) [µM]	IC50 (Saos-2) [µM]	IC90 (Saos-2) [µM]	also measured
CN1CCN(c2ccc(Nc3nc(N)c(C(=O)c4c(Cl)cc(C(F)(F)F)cc4Cl)s3)cc2)CC1 [C(81)]	0.0123	7.9	12	> 5	3.8	> 5	3.9	16	1.24	4.7	9.3	0.872	10	20		+	+	> 5	13	22	
Cc1cc(C(=O)c2sc(Nc3ccc(S(N)(=O)=O)cc3)nc2N)c(C)s1 [C(50), 4-[4-Amino-5-(2,5-dimethyl-thiophene-3-carbonyl)-thiazol-2-ylamino]-benzenesulfonamide]	0.0255	2	3				3	> 25	0.029	0.48	1.5	0.0056	0.61	1.6		+	+		1.3	2.8	% inhibition of growth in parentheses after >25 (MCF-7): (88%)
Cc1ccsc1C(=O)c1sc(Nc2ccc(S(N)(=O)=O)cc2)nc1N [C(48), 4-[4-Amino-5-(3-methyl-thiophene-2-carbonyl)-thiazol-2-ylamino]-benzenesulfonamide]	0.014	1	1.5	0.29	0.6	1.8	2.6	> 25	0.015	0.26	0.6	0.0111		0.7	0.6	+	+	0.8	0.42	0.75	% inhibition of growth in parentheses after >25 (MCF-7): (82%); IC90 (RXF-393): 1.6 µM
Nc1nc(Nc2ccc(S(N)(=O)=O)cc2)sc1C(=O)c1c(F)cccc1F [C(85), 4-[4-Amino-5-(2,6-difluoro-benzoyl)-thiazol-2-ylamino]-benzenesulfonamide]	0.013	1.7	2.8	0.24	0.71	2.2	3.9	13	0.0022	0.22	0.59	0.0057	0.25	0.56	0.58	+	+	1.2	0.28	0.67	IC90 (RXF-393): 3 µM

Compounds with a lower Ki [1], results first:

Ki [1] [µM]	IC50 (U2-OS) [µM]	IC90 (U2-OS) [µM]	IC50 (COLO-205) [µM]	IC50 (M14 melanoma) [µM]	IC90 (M14 melanoma) [µM]	IC50 (MCF-7) [µM]	IC90 (MCF-7) [µM]	Ki [4] [µM]	IC50 (MDA-MB-468) [µM]	IC90 (MDA-MB-468) [µM]	Ki (CDK2/cyclin A) [µM]	IC50 (HCT116) [µM]	IC90 (HCT116) [µM]	IC90 (COLO-205) [µM]	Structure (SMILES)	Inhibits pRb (ser 780) phosphorylation [2]	Inhibits pRb phosphorylation [3]	IC50 (RXF-393) [µM]	IC50 (Saos-2) [µM]	IC90 (Saos-2) [µM]	also measured
0.009	1.8	4	0.39	1.5	4.2			0.826			0.607	0.95	2.9	1.7	Cc1ccsc1C(=O)c1sc(Nc2ccc(N3CCN(C)CC3)cc2)nc1N [C(87), {4-Amino-2-[4-(4-methyl-piperazin-1-yl)-phenylamino]-thiazol-5-yl}-3-methyl-thiophen-2-yl-methanone]	+	+	1.5	2	4	IC90 (RXF-393): 2.3 µM
0.0082	0.85	1.5	0.2	2.4	9			0.681			0.37	0.58	1.4	0.6	Cc1ccsc1C(=O)c1sc(Nc2ccc(N3CCNCC3)cc2)nc1N [H(1), [4-Amino-2-(4-piperazin-1-yl-phenylamino)-thiazol-5-yl]-(3-methyl-thiophen-2-yl)-methanone Trihydrochloride]	+	+	0.46	0.73	1.4	IC90 (RXF-393): 0.88 µM
0.0064	1.7	2.8	0.9	0.65	2	0.48	1.7	0.405	0.34	0.7	0.135	0.3	0.73	2.7	Nc1nc(Nc2ccc(N3CCNCC3)cc2)sc1C(=O)c1c(F)cccc1F [J(2), [4-Amino-2-(4-piperazin-1-yl-phenylamino)-thiazol-5-yl]-(2,6-difluoro-phenyl)-methanone]	+	+	0.55	0.58	1.3	IC90 (RXF-393): 1.1 µM

— patent US6569878B1, “Substituted 4-amino-thiazol-2-yl compounds as cyclin-dependent kinase inhibitors” (Agouron Pharmaceuticals Inc., priority 1997, dated 2003)
